Assay [1] has as its target recombinant human S1P1 receptor (Homo sapiens, UniProt P21453). Nature of the assay: GTPγS assay to determine EC50 values. As to conditions: agonistic activity; membrane preparations of CHO cells expressing recombinant human S1P1 receptor; 35S-GTPγS binding. Format: biochemical. How it is done:
i) GTPγS assay to determine EC50 values
GTPγS binding assays are performed in 96 well microtiter plates (Nunc, 442587) in a final volume of 200 μl, using membrane preparations of CHO cells expressing recombinant human S1P1 receptor. Assay conditions are 20 mM Hepes (Fluka, 54461), 100 mM NaCl (Fluka, 71378), 5 mM MgCl2 (Fluka, 63064), 0.1% BSA (Calbiochem, 126609), 1 μM GDP (Sigma, G-7127), 2.5% DMSO (Fluka, 41644), 50 pM ^35S-GTPγS (Amersham Biosciences, SJ1320). The pH is 7.4. Test compounds are dissolved and diluted in 100% DMSO and pre-incubated at room temperature for 30 min in 150 μl of the above assay buffer, in the absence of ^35S-GTPγS. After addition of 50 μl of ^35S-GTPγS, the assay is incubated for 1 h at rt. The assay is terminated by transfer of the reaction mixture to a Multiscreen plate (Millipore, MAHFC1H60) using a cell harvester from Packard Biosciences, and the plates are washed with ice-cold 10 mM Na2HPO4/NaH2PO4 (70%/30%), dried, sealed at the bottom and, after addition of 25 μl MicroScint20 (Packard Biosciences, order#6013621), sealed on the top. Membrane-bound ^35S-GTPγS is measured with a TopCount from Packard Biosciences.
EC50 is the concentration of agonist inducing 50% of the maximal specific ^35S-GTPγS binding. Specific binding is determined by subtracting non-specific binding from maximal binding. Maximal binding is the amount of cpm bound to the Multiscreen plate in the presence of 10 μM of S1P. Non-specific binding is the amount of binding in the absence of an agonist in the assay.
In general terms: GTPγS is a poorly hydrolysed GTP analogue; its binding reports G protein activation.

For assay [2], the system named is circulating lymphocytes in normotensive male Wistar rats. Kind of assay: Assessment of in vivo efficacy: circulating lymphocytes after oral administration. Details: species or system rat. As to conditions: 6 h after oral administration of 10 mg/kg to normotensive male Wistar rats, compared to vehicle-treated group. How it is done:
The efficacy of the compounds of Formula (I) is assessed by measuring the circulating lymphocytes after oral administration of 3 to 30 mg/kg of a compound of Formula (I) to normotensive male Wistar rats. The animals are housed in climate-controlled conditions with a 12 h-light/dark cycle, and have free access to normal rat chow and drinking water. Blood is collected before and 3, 6 and 24 h after drug administration. Full blood is subjected to hematology using Advia Hematology system (Bayer Diagnostics, Zurich, Switzerland).
All data are presented as mean±SEM. Statistical analyses are performed by analysis of variance (ANOVA) using Statistica (StatSoft) and the Student-Newman-Keuls procedure for multiple comparisons. The null hypothesis is rejected when p<0.05.
Lymphocyte counts 6 h after oral administration have been measured for 51 from 244 exemplified compounds (one being dosed at 3 mg/kg) and are in the range of −78% to −53% with an average of −67%.

The structures appear in SMILES notation.

recombinant human S1P1 receptor, sequence (P21453 whole entry): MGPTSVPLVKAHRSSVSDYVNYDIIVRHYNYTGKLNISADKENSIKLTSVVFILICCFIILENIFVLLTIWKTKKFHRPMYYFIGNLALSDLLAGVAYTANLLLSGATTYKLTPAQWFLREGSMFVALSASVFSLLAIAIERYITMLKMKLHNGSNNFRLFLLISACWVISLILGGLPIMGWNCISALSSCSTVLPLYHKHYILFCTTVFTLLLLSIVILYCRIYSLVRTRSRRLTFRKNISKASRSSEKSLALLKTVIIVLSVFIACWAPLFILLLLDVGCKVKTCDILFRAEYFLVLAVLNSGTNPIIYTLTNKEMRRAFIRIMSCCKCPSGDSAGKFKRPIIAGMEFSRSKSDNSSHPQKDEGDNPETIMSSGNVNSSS

One may read the EC50 as the midpoint of the concentration-response curve. In the case of `Cc1cc(-c2noc(-c3cc(Cl)nc(CC(C)C)c3)n2)cc(C)c1OCC(O)CO` (racemic) [Example 4, (RS)-3-{4-[5-(2-Chloro-6-isobutyl-pyridin-4-yl)-[1,2,4]oxadiazol-3-yl]-2,6-dimethyl-phenoxy}-propane-1,2-diol], the EC50 in assay [1] was found to be 0.7 nM.

For the compound `CCc1cc(-c2nc(-c3cc(C)c(OCC(O)CO)c(C)c3)no2)cc(C)n1` (racemic) [Example 8, (RS)-3-{4-[5-(2-Ethyl-6-methyl-pyridin-4-yl)-[1,2,4]oxadiazol-3-yl]-2,6-dimethyl-phenoxy}-propane-1,2-diol], the Lymphocyte counts in assay [2] is reported as −62%.

As for `Cc1cc(-c2nc(-c3cc(C)c(OCC(O)CO)c(C)c3)no2)cc(CC(C)C)n1` (racemic) [Example 9, (RS)-3-{4-[5-(2-Isobutyl-6-methyl-pyridin-4-yl)-[1,2,4]oxadiazol-3-yl]-2,6-dimethyl-phenoxy}-propane-1,2-diol], the Lymphocyte counts in assay [2] is on record as −67%.

Take `Cc1cc(-c2nc(-c3cc(C)c(OCC(O)CNC(=O)CO)c(C)c3)no2)cc(CC(C)C)n1` (racemic) [Example 11, 2-Hydroxy-N-((RS)-2-hydroxy-3-{4-[5-(2-isobutyl-6-methyl-pyridin-4-yl)-[1,2,4]oxadiazol-3-yl]-2,6-dimethyl-phenoxy}-propyl)-acetamide]: the EC50 in assay [1] was 0.2 nM.

Consider `Cc1cc(-c2noc(-c3cc(Cl)nc(OC(C)C)c3)n2)cc(C)c1OCC(O)CNC(=O)CO` (racemic) [Example 26, N-((RS)-3-{4-[5-(2-Chloro-6-isopropoxy-pyridin-4-yl)-[1,2,4]oxadiazol-3-yl]-2,6-dimethyl-phenoxy}-2-hydroxy-propyl)-2-hydroxy-acetamide], for which, in assay [1], the 50% effective concentration (EC50) was 0.4 nM.

Turning to `CCOc1cc(-c2nc(-c3cc(C)c(OCC(O)CO)c(C)c3)no2)cc(C)n1` (racemic) [Example 27, (RS)-3-{4-[5-(2-Ethoxy-6-methyl-pyridin-4-yl)-[1,2,4]oxadiazol-3-yl]-2,6-dimethyl-phenoxy}-propane-1,2-diol], the concentration for a half-maximal effect (EC50) in assay [1] is 2.5 nM.

`Cc1cc(-c2nc(-c3cc(C)c(OCC(O)CNC(=O)CO)c(C)c3)no2)cc(OC(C)C)n1` (racemic) [Example 30, 2-Hydroxy-N-((RS)-2-hydroxy-3-{4-[5-(2-isopropoxy-6-methyl-pyridin-4-yl)-[1,2,4]oxadiazol-3-yl]-2,6-dimethyl-phenoxy}-propyl)-acetamide]: the Lymphocyte counts in assay [2] was −73%.

As to `COc1cc(-c2noc(-c3cc(C)nc(CC(C)C)c3)n2)cc(C)c1OCC(O)CNC(=O)CO` (racemic) [Example 159, (RS)-2-Hydroxy-N-(2-hydroxy-3-{4-[5-(2-isobutyl-6-methyl-pyridin-4-yl)-[1,2,4]oxadiazol-3-yl]-2-methoxy-6-methyl-phenoxy}-propyl)-acetamide], in assay [2], the Lymphocyte counts is recorded as −74%.

Take `CCc1cc(-c2nc(-c3cc(C)c(OC[C@H](O)CNC(=O)CO)c(Cl)c3)no2)cc(C)n1` [Example 60]: in assay [1], the EC50 came out at 0.5 nM.

As for `CCc1cc(-c2noc(-c3cc(C)c(OC[C@@H](O)CNC(=O)CO)c(CC)c3)n2)cc(C)n1` [Example 74], the EC50 in assay [1] worked out at 4.3 nM.

Regarding `CCCc1cc(-c2nc(-c3cc(C)c(O)c(CC)c3)no2)cc(C)n1` [Example 86], in assay [1], the EC50 turned out to be 5.6 nM.

As for `CCCc1cc(-c2nc(-c3cc(C)c(OCC(O)CNC(=O)CO)c(C)c3)no2)cc(C)n1` (centres unmarked) [Example 95], the EC50 in assay [1] was determined as 0.4 nM.

Consider `CCCc1cc(-c2nnc(-c3cc(C)c(OC[C@@H](O)CNC(=O)CO)c(C)c3)o2)cc(C)n1` [Example 111], for which, in assay [1], the EC50 was 1.8 nM.

With `CCCc1cc(-c2noc(-c3cc(C)nc(C(C)C)c3)n2)cc(C)c1OC[C@@H](O)CNC(=O)CO` [Example 123], the EC50 in assay [1] came to 0.4 nM.

Take `Cc1cc(-c2nc(-c3cc(C)c(OCC(O)CNC(=O)CO)c(Cl)c3)no2)cc(CC(C)C)n1` (centres unmarked) [Example 145]: the EC50 in assay [1] worked out at 0.2 nM.

Regarding `COc1cc(-c2noc(-c3cc(C)nc(CC(C)C)c3)n2)cc(Cl)c1OC[C@H](O)CNC(=O)CO` [Example 160], in assay [1], the EC50 stood at 0.7 nM.

For `CCc1cc(-c2nnc(-c3cc(C)nc(CC(C)C)c3)o2)cc(C)c1OC[C@@H](O)CNC(=O)CO` [Example 180], the EC50 in assay [1] is 0.8 nM.

On to `CCc1cc(-c2noc(-c3cc(C)nc(C(CC)CC)c3)n2)cc(C)c1OC[C@@H](O)CO` [Example 196], for which the EC50 in assay [1] was 0.6 nM.

With `CCc1cc(-c2noc(-c3cc(CC(C)C)nc(OC)c3)n2)cc(C)c1OC[C@@H](O)CNC(=O)CO` [Example 226], in assay [1], the EC50 worked out at 0.9 nM.

Take `CCc1cc(-c2ncc(-c3cc(C)nc(CC(C)C)c3)o2)cc(C)c1OC[C@@H](O)CO` [Example 235, (S)-3-{2-Ethyl-4-[5-(2-isobutyl-6-methyl-pyridin-4-yl)-oxazol-2-yl]-6-methyl-phenoxy}-propane-1,2-diol]: the EC50 in assay [1] was determined as 5.8 nM.

(Values after patent publication US8580824B2, “Pyridin-4-yl derivatives as immunomodulating agents” (Actelion Pharmaceuticals Ltd., priority 2006, dated 2013).)
